What was measured:
[1] = tested on: pro-inflammatory cytokine expression (IL-1α, IL-1β, IL-6, IL-8, TNFα) in HaCaT keratinocytes; test: Inflammatory epidermal keratinocyte models (SDS, Nickel, Carvacrol, SLIGRL, UVB, Poly p(I:C), SEB/TSLP), cytokine RT-qPCR; assay type: cell-based, human; conditions: seven keratinocyte inflammation models
[2] = tested on: OXA-induced ear edema, ACD mouse model; test: Oxazolone-induced allergic contact dermatitis model, ear edema; assay type: in vivo
Description: Prednisolone was solved in 1:1 of DMSO/saline and was administered topically (15-15 μL to the inner and outer surface of the ears). All other test compounds were solved in 96% ethanol. All solutions of all the concentrations were prepared freshly on the first day of every experiment and were stored at 4° C., then shaken properly before the treatments.
Anesthesia was induced by ketamine (Richter Gedeon, Budapest, Hungary) (100 mg/kg i.p., repeated as required) with xylazine (Lavet Ltd., Budapest, Hungary) (5 mg/kg i.m.). Animals were sensitized on two consecutive days by painting 2% oxazolone (50-50 μL, Merck KGaA) on the shaved abdomen. On the 6th day the right ears were smeared with 2% oxazolone (OXA) dissolved in 96% ethanol: 15-15 μL solution was applied on each of the inner and outer surfaces. Control ears were treated with 96% ethanol in the same way. Drug-treated groups were treated with 15-15 μL of drug solution smeared to the inner and outer side of the ears every 4 hrs of the experiment after oxazolone treatment. A schematic of the experimental protocol is provided in FIG. 24 and the experimental groups are defined below. • (a) Group 1: Ethanol-treated Controls: left ear: 96% ethanol, right ear: 2% oxazolone • (b) Group 2: 1 μM CBD • (c) Group 3: 10 μM CBD • (d) Group 4: 1 μM HU101 • (e) Group 5: 10 μMHU101
Ear thickness was measured with an engineer's micrometer, with 0.1 mm accuracy, before challenge with test agents and after the challenge at different time points. Data are expressed as % increase of ear thickness compared to the initial values.
Results are expressed as mean±SEM. Comparisons between different treatment groups were performed using two-way ANOVA followed by Sidak's post hoc test for skin thickness and one-way ANOVA followed by Bonferroni's post hoc test for MPO and vascular leakage. * p<0.05 was considered to be significant.

Row | Structure (SMILES) | rank order of efficacy among the F-CBDs [1] | efficacy relative to the efficacy of prednisolone ([2]; 1 μM topical, depending on the time-point) | Effect in ACD mouse model, significance of ear edema difference ([2]; OXA + CBD 10 μM vs. OXA + HUF101 1 μM, 24 h) | Effect in ACD mouse model, significance of ear edema difference ([2]; OXA + CBD 10 μM vs. OXA + HUF101 1 μM, 48 h) | Effect in ACD mouse model, significance of ear edema difference ([2]; OXA + CBD 10 μM vs. OXA + HUF101 1 μM, 56 h) | Effect in ACD mouse model, significance of ear edema difference ([2]; OXA + CBD 10 μM vs. OXA + HUF101 10 μM, 48 h) | Effect in ACD mouse model, significance of ear edema difference ([2]; OXA + CBD 10 μM vs. OXA + HUF101 10 μM, 56 h) | Effect in ACD mouse model, significance of ear edema difference ([2]; OXA vs. OXA + HUF101 1 μM, 24 h) | Effect in ACD mouse model, significance of ear edema difference ([2]; OXA vs. OXA + HUF101 1 μM, 48 h) | Effect in ACD mouse model, significance of ear edema difference ([2]; OXA vs. OXA + HUF101 1 μM, 56 h) | Effect in ACD mouse model, significance of ear edema difference ([2]; OXA vs. OXA + HUF101 10 μM, 24 h) | Effect in ACD mouse model, significance of ear edema difference ([2]; OXA vs. OXA + HUF101 10 μM, 48 h) | Effect in ACD mouse model, significance of ear edema difference ([2]; OXA vs. OXA + HUF101 10 μM, 56 h) | anti-inflammatory actions on OXA-induced edema ([2]; both doses (1 μM and 10 μM), topical, all time-points) | effects compared with 1 μM or 10 μM CBD ([2]; both doses, statistically significant compared to 10 μM CBD) | efficacy of 1 μM compared with 10 μM ([2]; topical) | reduction in OXA-induced edema formation ([2]; positive control, topical)
1 | C=C(C)[C@@H]1CCC(C)=C[C@H]1c1c(O)cc(CCCCC)c(F)c1O [HUF101] | HUF103>HU559a>HUF101 | 40-60% | ** (** p ≤ 0.01) | *** (*** p ≤ 0.001) | *** (*** p ≤ 0.001) | ** (** p ≤ 0.01) | *** (*** p ≤ 0.001) | *** (*** p ≤ 0.001) | *** (*** p ≤ 0.001) | *** (*** p ≤ 0.001) | *** (*** p ≤ 0.001) | *** (*** p ≤ 0.001) | * (* p ≤ 0.05) | statistically significant anti-inflammatory actions at all time-points | more robust effects | somewhat higher | –
2 | C[C@]12C=CC(=O)C=C1CC[C@@H]1[C@@H]2[C@@H](O)C[C@@]2(C)[C@H]1CC[C@]2(O)C(=O)CO [Prednisolone, reference compound] | – | – | – | – | – | – | – | – | – | – | – | – | – | – | – | – | most robust reduction

Reference: patent publication US11154515B2, “Pharmaceutical compositions comprising cannabidiol and beta-caryophyllene and methods for their use” (priority 2017, dated 2021)
